Measurements published in patent US8556817B2, “Non-invasive methods for determining the cardiovascular status of an individual” (priority 2005, dated 2013).
Marks after values point to notes of the source that are not given here.

Experiments:
[1] = Femoral artery wall layer thickness by non-invasive high-frequency ultrasound, postmenopausal estrogen users vs age-matched nonusers; assay type: in vivo, women
[2] = Carotid artery wall layer thickness by non-invasive high-frequency ultrasound, postmenopausal estrogen users vs age-matched nonusers; assay type: in vivo, women
Method: Any artery within the focus depth of the selected measuring equipment that can give information of the separate thicknesses of the artery intima layer and optionally the artery media layer may be used. In one embodiment, the thickness of the artery intima layer and optionally the artery media layer is measured in a superficial artery. Examples of superficial arteries include, but are not limited to, carotid, femoral, radialis, cubital, temporal, popliteal, or dorsalis pedis arteries. Depending on the artery which is selected for measurement, one skilled in the art will appreciate the various non-invasive locations on the individual in which the artery layer thickness may be measured. In one embodiment, the artery is a carotid artery and is examined in front of the sternocleidomastoid muscle, with the individual in the sitting position.
Before beginning the ultrasound imaging, individuals rest quietly for at least 15 minutes. Carotid total wall thickness and the thickness of the individual artery layers are assessed noninvasively using high-resolution ultrasonographic equipment (Osteoson® Minhorst GmbH, Meudt, Germany), fitted with a broad-banded probe with 25 MHz center frequency. The method is validated for the estimation of total artery wall thickness and media layer thickness in non-atherosclerotic superficial arteries in pigs. Briefly, the scan converter enables the image to be frozen at a selected scan-time (2 sec) and the unit permits two-dimensional data acquisition, presenting the results as scans A and B. About 128 lines of echo data are detected as an A-echo signal, sampled by an eight-bit analog-to-digital converter, converted by scanning to a rectangular format and viewed as B-mode images on a 32-colour scale monitor. Image resolution as defined by the product manual is approximately 0.07 mm axially along the ultrasonographic beam and the depth of focus is in the range of 13.5 to 14.5 mm in front of the tip of the probe. The system recognizes objects of about 0.015 mm in size, and the software-driven cursors permit a minimal digital display of 0.02 mm.
The left common carotid artery (LCCA) is examined at the point of the strongest pulse, in front of the sternocleidomastoid muscle, with the individuals sitting in an upright position and looking straight ahead. The three-layer image show the pulsating artery near wall and the artery lumen. Ten B scans (point estimates) are carried out and measurements of the thickness of the whole arterial wall and its layers are performed off-line. Means of the ten measurements are calculated and used in the analysis. The total thickness of the carotid wall is measured from the leading edge of the adventitia to the far edge of the intima. Measurements of the adventitia and intima are made using only the brightest echoes from leading edge to far edge, and the thickness of the media layer is measured as the distance between the two brightest echoes. The coefficient of variation (CV %), calculated from double estimates (based on the mean of 5 measurements each) in 20 subjects, is about 2.4% for total carotid wall thickness, about 4.2% for media thickness and about 8% for intima thickness. The values for artery wall layer given in this study are mean values based on 10 or more measurements. All ultrasonographic assessments are performed by the same investigator, who is blinded to the clinical data of the study subjects.

[3] = estrogen users vs age-matched nonusers
[4] = estrogen users vs age-matched nonusers, pair-wise
[5] = postmenopausal estrogen users (n = 17), mean ± SD

Estrogen
Intima thickness, % difference [1, 3]: −23% | Intima/Media ratio, % difference [1, 3]: −50% | Media thickness, % difference [1, 3]: +51% | Thickness of Intima + Media, % difference [1, 3]: +38% | Total wall thickness, % difference [1, 3]: +25% | Intima thickness, Mean difference ± SD [1, 4]: −0.030 ± 0.04 mm | Intima/Media ratio, Mean difference ± SD [1, 4]: −0.14 ± 0.13 | Media thickness, Mean difference ± SD [1, 4]: 0.27 ± 0.30 mm | Thickness of Intima + Media, Mean difference ± SD [1, 4]: 0.24 ± 0.33 mm | Total wall thickness, Mean difference ± SD [1, 4]: 0.18 ± 0.40 mm | Intima thickness [1, 5]: 0.095 ± 0.02 mm | Intima/Media ratio [1, 5]: 0.14 ± 0.06^0.055 | Media thickness [1, 5]: 0.77 ± 0.29^a mm | Thickness of Intima + Media [1, 5]: 0.87 ± 0.30^a mm | Total wall thickness [1, 5]: 0.91 ± 0.37^b mm | Intima thickness, % difference [2, 3]: −25% | Intima/Media ratio, % difference [2, 3]: −54% | Media thickness, % difference [2, 3]: +74% | Thickness of Intima + Media, % difference [2, 3]: +43% | Total wall thickness, % difference [2, 3]: +35% | Intima thickness, Mean difference ± SD [2, 4]: −0.033 ± 0.04 mm | Intima/Media ratio, Mean difference ± SD [2, 4]: −0.25 ± 0.15 | Media thickness, Mean difference ± SD [2, 4]: 0.26 ± 0.22 mm | Thickness of Intima + Media, Mean difference ± SD [2, 4]: 0.22 ± 0.23 mm | Total wall thickness, Mean difference ± SD [2, 4]: 0.23 ± 0.23 mm | Intima thickness [2, 5]: 0.12 ± 0.02 mm | Intima/Media ratio [2, 5]: 0.21 ± 0.0629^a | Media thickness [2, 5]: 0.61 ± 0.19 mm | Thickness of Intima + Media [2, 5]: 0.73 ± 0.19 mm | Total wall thickness [2, 5]: 0.84 ± 0.19 mm
